30 compounds from patent publication US11524938B2, “Aromatic sulfonamide derivatives” (Bayer Pharma Aktiengesellschaft, priority 2016, dated 2022) can be followed below.

By IC50 is commonly meant the concentration needed to halve the response being measured. Low readings indicate greater potency in that assay, high ones weaker potency in that assay.

In this test the target is T1, human P2X4 (Homo sapiens, UniProt Q99571).
T1 sequence (Q99571 1-388): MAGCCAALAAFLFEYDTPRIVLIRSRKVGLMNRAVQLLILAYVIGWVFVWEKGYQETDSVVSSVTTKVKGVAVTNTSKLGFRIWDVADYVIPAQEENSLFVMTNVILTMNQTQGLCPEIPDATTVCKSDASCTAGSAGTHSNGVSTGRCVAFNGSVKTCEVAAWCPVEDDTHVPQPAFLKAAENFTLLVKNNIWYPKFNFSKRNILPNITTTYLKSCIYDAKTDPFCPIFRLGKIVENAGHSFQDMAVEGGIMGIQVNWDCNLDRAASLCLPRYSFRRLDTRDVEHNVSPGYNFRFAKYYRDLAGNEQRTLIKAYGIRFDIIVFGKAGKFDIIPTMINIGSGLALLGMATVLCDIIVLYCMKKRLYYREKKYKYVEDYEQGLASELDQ
The test is described as follows: Human P2X4 HEK Cell FLIPR Assay. The format is cell-based. Particulars: agonist Bz-ATP at EC80; for Emax: percentage of maximal inhibition, read-out: Human P2X4 HEK Cells (FLIPR Assay) avg Efficacy [%]; for IC50: individual values listed where some fall outside detection range. The method, boiled down: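 HEK293 cells stably expressing human P2X4, Fluo8-AM loaded 30 min at 37° C, then compound 30 min at room temperature (0.5% DMSO, pH 7.4 buffer with 1.8 mM CaCl2). Bz-ATP at its daily-determined EC80 added; calcium fluorescence read over 120 sec; IC50 from peak RFU normalized to agonist control, triplicates.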

Read-outs that look alike come from different tables or passages of the source.

Turning to `CN(C)CCNC(=O)c1cccc(-c2ccc(NC(=O)Cc3ccccc3Cl)cc2S(N)(=O)=O)c1` [Example 364, 4′-{[(2-Chlorophenyl)acetyl]amino}-N-[2-(dimethylamino)ethyl]-2′-sulfamoylbiphenyl-3-carboxamide], under “HEK293, HEK293 cells”, the Emax was 77%. Moreover, the IC50 (HEK293 cells) was 715 nM. Take `NS(=O)(=O)c1cc(NC(=O)Cc2ccccc2Cl)ccc1-c1cnn2cccnc12` [Example 365, 2-(2-Chlorophenyl)-N-[4-(pyrazolo[1,5-a]pyrimidin-3-yl)-3-sulfamoylphenyl]acetamide]: the Emax (HEK293, HEK293 cells) was determined as 89%. Further, the IC50 (HEK293 cells) is 113 nM.

For `NS(=O)(=O)c1cc(NC(=O)Cc2ccccc2Cl)ccc1-c1cncc(C(=O)N2CCCC2)c1` [Example 366, 2-(2-Chlorophenyl)-N-{4-[5-(pyrrolidin-1-ylcarbonyl)pyridin-3-yl]-3-sulfamoylphenyl}acetamide], the Emax (HEK293, HEK293 cells) was determined as 97%. The IC50 (HEK293 cells) was determined as 128 nM. With `NS(=O)(=O)c1cc(NC(=O)Cc2ccccc2Cl)ccc1-c1cn[nH]c1` [Example 367, 2-(2-Chlorophenyl)-N-[4-(1H-pyrazol-4-yl)-3-sulfamoylphenyl]acetamide], the Emax (HEK293, HEK293 cells) was found to be 83%. The same compound came in with an IC50 (HEK293 cells) of 131 nM. Taken in the same sequence, the figures for `Cn1nc(C(F)(F)F)cc1-c1ccc(NC(=O)Cc2ccccc2F)cc1S(N)(=O)=O` [Example 368, 2-(2-Fluorophenyl)-N-{4-[1-methyl-3-(trifluoromethyl)-1H-pyrazol-5-yl]-3-sulfamoylphenyl}acetamide] were 100% and 133 nM. On the same counts, the results for `COCCn1cc(-c2ccc(NC(=O)Cc3ccccc3F)cc2S(N)(=O)=O)cn1` [Example 369, 2-(2-Fluorophenyl)-N-{4-[1-(2-methoxyethyl)-1H-pyrazol-4-yl]-3-sulfamoylphenyl}acetamide] are 110% and 141 nM. On the same counts, the results for `CC(C)(O)Cn1cc(-c2ccc(NC(=O)Cc3ccccc3Cl)cc2S(N)(=O)=O)cn1` [Example 370, 2-(2-Chlorophenyl)-N-{4-[1-(2-hydroxy-2-methylpropyl)-1H-pyrazol-4-yl]-3-sulfamoylphenyl}acetamide] are 76% and 143 nM. On to `NS(=O)(=O)c1cc(NC(=O)Cc2cc(Cl)ccc2F)ccc1-c1cnn(C2CC2)c1` [Example 371, 2-(5-Chloro-2-fluorophenyl)-N-[4-(1-cyclopropyl-1H-pyrazol-4-yl)-3-sulfamoylphenyl]acetamide], for which the Emax (HEK293, HEK293 cells) is 99%. This compound gave an IC50 (HEK293 cells) of 152 nM. On the same counts, the results for `Cc1ccc(-c2ccc(NC(=O)Cc3ccccc3Cl)cc2S(N)(=O)=O)cn1` [Example 372, 2-(2-Chlorophenyl)-N-[4-(6-methylpyridin-3-yl)-3-sulfamoylphenyl]acetamide] are 83% and 166 nM.

For `NS(=O)(=O)c1cc(NC(=O)Cc2ccccc2Cl)ccc1-c1cnn(C2COC2)c1` [Example 373, 2-(2-Chlorophenyl)-N-{4-[1-(oxetan-3-yl)-1H-pyrazol-4-yl]-3-sulfamoylphenyl}-acetamide], under “HEK293, HEK293 cells”, the Emax amounted to 89%. Moreover, the IC50 (HEK293 cells) came to 167 nM. Taken in the same sequence, the figures for `Cn1cc(-c2ccc(NC(=O)Cc3ccccc3F)cc2S(N)(=O)=O)cn1` [Example 374, 2-(2-Fluorophenyl)-N-[4-(1-methyl-1H-pyrazol-4-yl)-3-sulfamoylphenyl]acetamide] were 82% and 386 nM. Taken in the same sequence, the figures for `Cc1nn(C)cc1-c1ccc(NC(=O)Cc2ccccc2F)cc1S(N)(=O)=O` [Example 375, N-[4-(1,3-Dimethyl-1H-pyrazol-4-yl)-3-sulfamoylphenyl]-2-(2-fluorophenyl)acetamide] were 79% and 660 nM.

As to `NS(=O)(=O)c1cc(NC(=O)Cc2ccccc2F)ccc1-c1nnc(C2CC2)o1` [Example 376, N-[4-(5-Cyclopropyl-1,3,4-oxadiazol-2-yl)-3-sulfamoylphenyl]-2-(2-fluorophenyl)-acetamide], the Emax (HEK293, HEK293 cells) worked out at 98%. The compound further displayed an IC50 (HEK293 cells) of 9 nM.

Turning to `NS(=O)(=O)c1cc(NC(=O)Cc2ccccc2Cl)ccc1-c1nnc(C2CC2)o1` [Example 377, 2-(2-Chlorophenyl)-N-[4-(5-cyclopropyl-1,3,4-oxadiazol-2-yl)-3-sulfamoylphenyl]-acetamide], the Emax (HEK293, HEK293 cells) came to 80%. This compound also returned an IC50 (HEK293 cells) of 27 nM.

As to `NS(=O)(=O)c1cc(NC(=O)Cc2ccccc2F)ccc1-n1cc(C(F)F)cn1` [Example 378, N-{4-[4-(Difluoromethyl)-1H-pyrazol-1-yl]-3-sulfamoylphenyl}-2-(2-fluorophenyl)acetamide], the Emax (HEK293, HEK293 cells) stood at 84%. This compound showed an IC50 (HEK293 cells) of 89 nM. Taken in the same sequence, the figures for `NS(=O)(=O)c1cc(NC(=O)Cc2ccccc2Cl)ccc1-n1cc(C(F)F)cn1` [Example 379, 2-(2-Chlorophenyl)-N-{4-[4-(difluoromethyl)-1H-pyrazol-1-yl]-3-sulfamoylphenyl}acetamide] were 87% and 29 nM. With `NS(=O)(=O)c1cc(NC(=O)Cc2ccccc2F)cnc1-n1cc(C(F)(F)F)cn1` [Example 381, 2-(2-Fluorophenyl)-N-{5-sulfamoyl-6-[4-(trifluoromethyl)-1H-pyrazol-1-yl]pyridin-3-yl}acetamide], the Emax (HEK293, HEK293 cells) is 77%. On to `N#Cc1cnn(-c2ncc(NC(=O)Cc3ccccc3F)cc2S(N)(=O)=O)c1` [Example 382, N-[6-(4-Cyano-1H-pyrazol-1-yl)-5-sulfamoylpyridin-3-yl]-2-(2-fluorophenyl)acetamide], for which the Emax (HEK293, HEK293 cells) turned out to be 87%. In addition, for the setting “HEK293 cells”, the IC50 stood at 315 nM. On the same counts, the results for `N#Cc1cnn(-c2ncc(NC(=O)Cc3ccccc3Cl)cc2S(N)(=O)=O)c1` [Example 383, 2-(2-Chlorophenyl)-N-[6-(4-cyano-1H-pyrazol-1-yl)-5-sulfamoylpyridin-3-yl]acetamide] are 93% and 45 nM. Turning to `NS(=O)(=O)c1cc(NC(=O)Cc2ccccc2F)cnc1-n1cc(F)cn1` [Example 384, 2-(2-Fluorophenyl)-N-[6-(4-fluoro-1H-pyrazol-1-yl)-5-sulfamoylpyridin-3-yl]acetamide], the Emax (HEK293, HEK293 cells) was 81%. Under “HEK293 cells”, the IC50 amounted to 524 nM. Taken in the same sequence, the figures for `NS(=O)(=O)c1cc(NC(=O)Cc2ccccc2Cl)cnc1-n1cc(F)cn1` [Example 385, 2-(2-Chlorophenyl)-N-[6-(4-fluoro-1H-pyrazol-1-yl)-5-sulfamoylpyridin-3-yl]acetamide] were 72% and 47 nM. On the same counts, the results for `NS(=O)(=O)c1cc(NC(=O)Cc2ccccc2F)cnc1-n1cc(Br)cn1` [Example 386, N-[6-(4-Bromo-1H-pyrazol-1-yl)-5-sulfamoylpyridin-3-yl]-2-(2-fluorophenyl)acetamide] are 64% and 76 nM.

For the compound `NS(=O)(=O)c1cc(NC(=O)Cc2ccccc2F)cnc1-n1cc(Cl)cn1` [Example 388, N-[6-(4-Chloro-1H-pyrazol-1-yl)-5-sulfamoylpyridin-3-yl]-2-(2-fluorophenyl)acetamide], the Emax (HEK293, HEK293 cells) stood at 68%. The compound further yielded an IC50 (HEK293 cells) of 196 nM. Take `NS(=O)(=O)c1cc(NC(=O)Cc2ccccc2Cl)cnc1-n1cc(Br)cn1` [Example 389, N-[6-(4-Bromo-1H-pyrazol-1-yl)-5-sulfamoylpyridin-3-yl]-2-(2-chlorophenyl)-acetamide]: the Emax (HEK293, HEK293 cells) came to 77%. Under “HEK293 cells”, the IC50 is 22 nM. Take `NS(=O)(=O)c1cc(NC(=O)Cc2ccccc2F)ccc1-c1nnc(C(F)(F)F)o1` [Example 390, 2-(2-Fluorophenyl)-N-{3-sulfamoyl-4-[5-(trifluoromethyl)-1,3,4-oxadiazol-2-yl]phenyl}acetamide]: for the setting “HEK293 cells”, the IC50 worked out at 1700 nM and the Emax came out at 91%. `NS(=O)(=O)c1cc(NC(=O)Cc2ccccc2Cl)ccc1-c1nnc(C(F)(F)F)o1` [Example 391, 2-(2-Chlorophenyl)-N-{3-sulfamoyl-4-[5-(trifluoromethyl)-1,3,4-oxadiazol-2-yl]phenyl}acetamide]: under “HEK293, HEK293 cells”, the Emax was found to be 98%. Where the note is “HEK293 cells”, the IC50 stood at 186 nM. On the same counts, the results for `NS(=O)(=O)c1cc(NC(=O)Cc2ccccc2Cl)ccc1-n1cnc(-c2cccnc2)n1` [Example 392, 2-(2-Chlorophenyl)-N-{4-[3-(pyridin-3-yl)-1H-1,2,4-triazol-1-yl]-3-sulfamoylphenyl}acetamide] are 64% and 9660 nM.

As to `NS(=O)(=O)c1cc(NC(=O)Cc2ccccc2F)ccc1-n1cccn1` [Example 393, 2-(2-Fluorophenyl)-N-[4-(1H-pyrazol-1-yl)-3-sulfamoylphenyl]acetamide], the Emax (HEK293, HEK293 cells) was 49%. Take `CC(C)(C)c1cnn(-c2ccc(NC(=O)Cc3ccccc3Cl)cc2S(N)(=O)=O)c1` [Example 394, N-[4-(4-tert-Butyl-1H-pyrazol-1-yl)-3-sulfamoylphenyl]-2-(2-chlorophenyl)acetamide]: the Emax (HEK293, HEK293 cells) turned out to be 86%. Also, the IC50 (HEK293 cells) was 740 nM. Taken in the same sequence, the figures for `NS(=O)(=O)c1cc(NC(=O)Cc2ccccc2Cl)ccc1-n1ncc2ccccc21` [Example 395, 2-(2-Chlorophenyl)-N-[4-(1H-indazol-1-yl)-3-sulfamoylphenyl]acetamide] were 86% and 73 nM.
